Data set [1] deals with YAP1 protein level in A549 cells. Briefly: YAP1 protein level by Western blot in A549 cells. It counts as cell-based. How it is done:
A549 cells were treated with TD034 at 5 and 10 μM for 24 hr. Western blot was used to check for YAP1 protein level. qRT-PCR was used to check for YAP1 downstream genes transcription (CTGF and CYR61). Total RNA was extracted using IBI Isolate Total Extraction Reagent Kit (IB47602). […] of RNA was reverse transcribed using OneScript Plus cDNA Synthesis Kit (ABM G236) according to the manufacturer’s protocol. Real-time PCR was performed using BlasTaq 2X qPCR MasterMix (ABM G892) on a QuantStudio 3 Real-Time PCR System. All qPCR reactions were performed in triplicates. The list of primers is included in the Supporting Information.

For data set [2] the following is noted: pH 8.
Data set [3] deals with T1, HDAC6 (Homo sapiens, UniProt Q9UBN7).
T1 sequence (Q9UBN7 1-1215): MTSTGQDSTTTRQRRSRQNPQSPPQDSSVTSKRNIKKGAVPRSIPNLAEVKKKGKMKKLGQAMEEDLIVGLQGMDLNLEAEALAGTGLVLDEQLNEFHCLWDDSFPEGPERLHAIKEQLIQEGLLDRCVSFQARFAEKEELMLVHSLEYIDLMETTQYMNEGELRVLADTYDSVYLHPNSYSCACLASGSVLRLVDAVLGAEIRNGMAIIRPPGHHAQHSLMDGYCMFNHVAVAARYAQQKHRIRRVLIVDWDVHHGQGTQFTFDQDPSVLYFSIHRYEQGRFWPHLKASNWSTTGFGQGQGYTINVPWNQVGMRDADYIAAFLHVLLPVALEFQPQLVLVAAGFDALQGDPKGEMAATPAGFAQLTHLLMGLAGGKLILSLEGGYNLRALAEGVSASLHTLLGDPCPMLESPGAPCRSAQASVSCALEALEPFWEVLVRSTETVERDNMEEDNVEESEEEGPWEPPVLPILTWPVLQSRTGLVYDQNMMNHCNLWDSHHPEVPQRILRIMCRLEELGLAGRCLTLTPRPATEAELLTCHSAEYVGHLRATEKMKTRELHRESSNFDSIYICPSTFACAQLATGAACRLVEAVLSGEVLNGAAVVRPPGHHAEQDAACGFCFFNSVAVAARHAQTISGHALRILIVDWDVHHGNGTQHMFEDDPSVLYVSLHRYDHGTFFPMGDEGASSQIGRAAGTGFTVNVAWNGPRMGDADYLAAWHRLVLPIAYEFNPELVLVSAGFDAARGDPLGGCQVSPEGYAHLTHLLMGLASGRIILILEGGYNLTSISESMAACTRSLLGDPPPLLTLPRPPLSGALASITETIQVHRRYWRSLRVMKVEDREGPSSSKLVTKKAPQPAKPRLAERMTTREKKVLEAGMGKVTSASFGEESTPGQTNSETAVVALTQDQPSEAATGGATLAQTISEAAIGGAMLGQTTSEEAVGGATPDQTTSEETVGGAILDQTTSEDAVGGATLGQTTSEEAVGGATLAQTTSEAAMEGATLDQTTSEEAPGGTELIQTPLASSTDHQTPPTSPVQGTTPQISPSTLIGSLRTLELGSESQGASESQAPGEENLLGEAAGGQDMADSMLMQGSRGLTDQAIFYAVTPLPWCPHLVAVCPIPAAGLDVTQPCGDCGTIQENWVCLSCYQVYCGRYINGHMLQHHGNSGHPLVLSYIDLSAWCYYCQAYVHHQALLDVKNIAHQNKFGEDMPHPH
Briefly: HDAC6 enzyme activity assay (Ac-H3K9, HPLC). The settings on record: read-out: HDAC6, % inhibition.
Description: (§1) For HDAC1, 6, 8, and SIRT1-2, Ac-H3K9 was used as a substrate. […] The reaction was conducted for 15 min (HDAC11), 30 min (HDAC1, 4, 6, 8), and 5 min (SIRT1-2). Then, 20 μL of 0.2% TFA/acetonitrile was added to quench the reaction. The samples were analyzed by HPLC using a Chromolith HighResolution RP-18 end-capped 100 mm × 4.6 mm column (EMD Millipore). Mobile phase A was 0.1% TFA in water and mobile phase B was 0.1% TFA in acetonitrile. The total flow rate was 1 mL/min, and the gradient was 0% B (2 min), 0–60% B (7 min), 100% B (4 min), and 0% B (2 min). The relative ratio of product/substrate in each sample was compared to control sample (no inhibitor) to determine the inhibition level.

The target in data set [4] is T2, HDAC8 (Homo sapiens, UniProt Q9BY41).
T2 sequence (Q9BY41 1-377): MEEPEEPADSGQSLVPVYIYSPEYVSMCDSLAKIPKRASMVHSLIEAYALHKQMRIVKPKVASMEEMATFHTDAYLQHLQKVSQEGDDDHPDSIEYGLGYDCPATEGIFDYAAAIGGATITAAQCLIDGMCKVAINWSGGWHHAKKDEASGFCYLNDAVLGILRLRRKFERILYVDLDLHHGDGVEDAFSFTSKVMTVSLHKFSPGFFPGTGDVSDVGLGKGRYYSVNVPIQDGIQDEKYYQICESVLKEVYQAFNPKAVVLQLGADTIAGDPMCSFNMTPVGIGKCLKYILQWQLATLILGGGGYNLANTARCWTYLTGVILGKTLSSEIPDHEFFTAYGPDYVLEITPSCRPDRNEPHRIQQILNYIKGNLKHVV
The experiment in a line: HDAC8 enzyme activity assay (Ac-H3K9, HPLC). The settings on record: read-out: HDAC8, % inhibition.
Description: as §1

Data set [5] has as its target T3, SIRT2 (Homo sapiens, UniProt Q8IXJ6).
T3 sequence (Q8IXJ6 1-389): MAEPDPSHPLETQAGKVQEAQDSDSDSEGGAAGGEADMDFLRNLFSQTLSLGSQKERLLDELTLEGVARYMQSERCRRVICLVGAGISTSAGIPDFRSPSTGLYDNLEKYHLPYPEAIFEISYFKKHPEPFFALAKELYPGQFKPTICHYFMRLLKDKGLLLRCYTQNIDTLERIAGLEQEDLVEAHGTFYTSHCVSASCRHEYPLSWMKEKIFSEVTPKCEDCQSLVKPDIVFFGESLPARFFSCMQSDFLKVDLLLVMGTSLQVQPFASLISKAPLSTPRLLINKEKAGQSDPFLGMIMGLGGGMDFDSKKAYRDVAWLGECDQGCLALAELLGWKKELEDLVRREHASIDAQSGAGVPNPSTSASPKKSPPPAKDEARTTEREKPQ
The experiment in a line: SIRT2 enzyme activity assay (Ac-H3K9, NAD+, HPLC).
Description: as §1

Usually inhibition stands for the change of the read-out against control, counted positive when it falls. The term IC50 denotes the midpoint of a concentration-inhibition curve. Read a high IC50 as lower potency.

For the molecule `CCCCCCCCCCC[C@H]1O[C@@H]1C(=O)CCCCC[C@@H]1NC(=O)[C@H]2CCCCN2C(=O)[C@H](Cc2ccccc2)NC(=O)[C@H](Cc2ccccc2)NC1=O` [TD034], in data set [1] (A549 cells, 5 and 10 μM, 24 hr), the YAP1 protein levels result is reported as “significant reduction”. Also, the YAP1 protein level entry in data set [1] (wild-type (WT) A549 cells) is recorded as “reduced”. Moreover, the “stability in Tris buffer and DTT” value in data set [2] is on record as “relatively stable”. For the same molecule, in data set [3], the inhibition at 1 µM is 0%, the inhibition at 10 µM is 0% and the inhibition at 25 µM was 0%. Moreover, in data set [4], the inhibition at 1 µM came out at 0%, the inhibition at 10 µM was 0% and the inhibition at 25 µM stood at 0%. Also, in data set [5], the IC50 was around 25 µM. Also, in data set [5] (read-out: SIRT2, % inhibition), the inhibition at 1 µM turned out to be 9%, the inhibition at 10 µM is 29% and the inhibition at 25 µM is 54%.
